In series [1] the target is T1, His6-Te2FT (Thermosynechococcus vestitus, UniProt Q8DK72). Description: Effects of metal ions, DTT and EDTA on α1-2-fucosyltransferase activity. Type of series: biochemical, Thermosynechococcus elongatus BP-1. The following applies: pH 7.5; for effect on α1-2-fucosyltransferase activity: 10 mM added; for effect on α1-2-fucosyltransferase activity / enhancement of α1-2-fucosyltransferase activity: acceptor Galβ1-3GlcNAcβ2AA; for enhancement of α1-2-fucosyltransferase activity: 5-20 mM added. On the procedure:
For metal effects, various concentrations (5 mM, 10 mM, or 20 mM) of MgCl2 or MnCl2 were added and EDTA (as a chelating agent) (10 mM) and DTT (10 mM) were used in a Tris-HCl buffer (pH 7.5, 200 mM) to analyze their effects on the α1-2-fucosyltransferase activity of His6-Te2FT for acceptor Galβ1-3GlcNAcβ2AA. Reaction without metal ions, EDTA and DTT was used as a control. The effects of metal ions Mg^2+ and Mn^2+ as well as DTT and the chelating agent EDTA on the α1-2-fucosyltransferase activity of His6-Te2FT toward and acceptor Galβ1-3GlcNAcβ2AA were examined at pH 7.5.

In series [2] the target is T1, His6-Te2FT. Description: Kinetics of α1-2-fucosyltransferase activity by HPLC assays. The format is biochemical, Thermosynechococcus elongatus BP-1. The following applies: for Km / kcat: 2FT activity, apparent, pH 6.0, 37° C., MgCl2 20 mM, other substrate fixed at 1 mM. As for the experimental part:
Typical enzymatic assays were carried out in duplicate in a total volume of 10 μL in Tris-HCl buffer (pH 6.0, 200 mM) containing MgCl2 (20 mM), GDP-fucose, Galβ1-3GlcNAcβ2AA, and the recombinant His6-Te2FT (0.75 μg). All reactions were allowed to proceed for 10 min at 37° C. Apparent kinetic parameters were obtained by varying the GDP-fucose concentration from 0.1 to 10.0 mM (0.1, 0.2, 0.4, 1.0, 5.0, and 10.0 mM) and a fixed concentration of Galβ1-3GlcNAcβ2AA (1 mM); or a fixed concentration of GDP-fucose (1 mM) and varied concentrations of Galβ1-3GlcNAcβ2AA from 0.1 to 10.0 mM (0.1, 0.2, 0.4, 5.0, and 10.0 mM). The reaction mixture was quenched by boiling for 2 minutes and diluted 60-fold for detection. Apparent kinetic parameters were obtained by fitting the data into the Michaelis-Menten equation using Grafit 5.0.

The target of series [3] is T1, His6-Te2FT. Description: Kinetics of GDP-fucose hydrolysis by capillary electrophoresis assays. The format is biochemical, Thermosynechococcus elongatus BP-1. On the procedure:
The enzymatic assays were carried out in duplicate in a total volume of 10 μL in Tris-HCl buffer (200 mM, pH 9.0) containing MgCl2 (20 mM), GDP-fucose and the recombinant protein (4.5 μg). Reactions were allowed to proceed for 30 min at 37° C. Apparent kinetic parameters were obtained by varying the final GDP-fucose concentration from 0.4 to 2.0 mM (0.4, 0.5, 0.6, 0.8, 1.0 and 2.0 mM). Apparent kinetic parameters were obtained by fitting the data (the average values of duplicate assay results) into the Michaelis-Menten equation using Grafit 5.0.

Series [4] has as its target T1, His6-Te2FT. Description: Acceptor substrate specificity studies of His6-Te2FT. The format is biochemical, Thermosynechococcus elongatus BP-1.
Series [5] can be described thus: Effect of freeze-dry cycle (lyophilization and rehydration) on His6-Te2FT activity. The following applies: lyophilized, rehydrated. Type of series: biochemical. On the procedure:
Purified His6-Te2FT samples were prepared essentially as described in Example 1, and were dialyzed against 20 mM Tris-HCl without glycerol and lyophilized. The Te2FT powders were stored at −70° C. for 20 days, or for several months. After that, the dried powder was dissolved in water and 20 mM Tris-HCl buffer, respectively. The activities of the lyophilized His6-Te2FT samples were compared with the same amount and concentration of freshly prepared Te2FT samples. The reaction mixture was GDP-fucose (1 mM), Galβ1-3GlcNAcβ2AA, (1 mM), MgCl2 (20 mM), and His6-Te2FT (0.75 μg). All reactions were performed in duplicate and allowed to proceed for 10 minutes at 37° C.

A short description of series [6]: Effect of temperature on α1-2-fucosyltransferase activity of His6-Te2FT. The format is biochemical. On the procedure:
Assays were carried out in a total volume of 10 μL in a Tris-HCl buffer (pH 6.0, 200 mM) at temperatures ranging from 15° C. to 70° C. The reaction mixture contained GDP-fucose (1 mM), MgCl2 (20 mM), Galβ1-3GlcNAcβ2AA (1 mM), and the recombinant His6-Te2FT (1.5 μg). All reactions were allowed to proceed for 10 minutes at various temperatures. The reaction was stopped by boiling for 2 minutes, and diluted 60-fold for detection.

Series [7] can be described thus: pH profile of GDP-fucose hydrolysis of His6-Te2FT by capillary electrophoresis. The format is biochemical. On the procedure: Each reaction was carried out in duplicate at 37° C. for 30 minutes in a total volume of 10 μL in a buffer (200 mM) with pH varying from 3.0 to 11.0. The buffers used were: Citric, pH 3.0-4.0, NaOAc/HOAc, pH 4.5, MES, pH 5.0-6.5; Tris-HCl, pH 7.0-9.0; and CAPS, pH 10.0-11.0 containing GDP-fucose (1 mM), MgCl2 (20 mM) and the recombinant enzyme (3.75 μg). Reactions were stopped by boiling for 2 min followed by adding an equal volume of water (10 μL) to make a two-fold dilution. The samples were kept on ice until aliquots of 6 μL were withdrawn and analyzed by a Beckman P/ACE MDQ capillary electrophoresis system (60 cm×75 μm i.d.) with a PDA detector. The ratio of the absorbance for GDP-fucose and GDP at 254 nm was determined at different concentrations (2.5, 5, and 10 mM). All assays were carried out in duplicate.

Series [8] can be described thus: pH profile of α1-2-fucosyltransferase activity of His6-Te2FT by HPLC. The format is biochemical. On the procedure:
Each reaction was carried out in duplicate at 37° C. for 10 minutes in a total volume of 10 μL in a buffer (200 mM) with pH varying from 3.0 to 11.0. The buffers used were: Citric, pH 3.0-4.0, NaOAc/HOAc, pH 4.5, MES, pH 5.0-6.5; Tris-HCl, pH 7.0-9.0; and CAPS, pH 10.0-11.0. The reaction system was: GDP-fucose (1 mM), fluorophore 2-anthranilic acid (2AA)-labeled oligosaccharide (Galβ1-3GlcNAcβ2AA, 1 mM), MgCl2 (20 mM), and the recombinant enzyme, His6-Te2FT (0.25 μg). The reaction mixture was stopped by boiling for 2 min and then adding an equal volume of water (10 μL) to make a […] dilution for Galβ1-3GlcNAcβ2AA. The samples were analyzed by a Shimadzu LC-2010A system equipped with a membrane online degasser, a temperature control unit and a fluorescence detector. A reverse-phase Premier C18 column (250×4.6 mm i.d., 5 μm particle size, Shimadzu) protected with a C18 guard column cartridge was used. The mobile phase was 20% acetonitrile. The ratio of the absorbance for fluorescent-labeled product at 315-400 nm was determined.

[9] abbreviates: GDP-Fuc hydrolysis, apparent, pH 9.0, 37° C., MgCl2 20 mM.
The mark [10] stands for this setting: acceptor Galβ1-3GlcNAcβ2AA, 37° C., 10 minutes.

The source of these data is US11572548B2, “Reaction mixture for synthesis of alpha1-2-fucosides” (The Regents of the University of California, priority 2015, dated 2023).

For the molecule `O[C@H](CS)[C@H](O)CS` (racemic) [DTT, dithiothreitol], the “effect on α1-2-fucosyltransferase activity” value on His6-Te2FT [1] was “decreased His6-Te2FT activity moderately”.

In the case of `O=C(O)CN(CCN(CC(=O)O)CC(=O)O)CC(=O)O` [EDTA, ethylenediaminetetraacetic acid], the “effect on α1-2-fucosyltransferase activity” value at His6-Te2FT [1] is recorded as “decreased its activity only slightly”.

What is called Km is the concentration of substrate that gives half-maximal velocity. In general, kcat refers to the number of substrate molecules converted per active site and unit of time at saturation. On to `C[C@@H]1O[C@H](OP(=O)(O)OP(=O)(O)OC[C@H]2O[C@@H](n3cnc4c(=O)[nH]c(N)nc43)[C@H](O)[C@@H]2O)[C@@H](O)[C@H](O)[C@@H]1O` [GDP-fucose, Guanosine 5′-diphosphate-fucose], for which the Km on His6-Te2FT [2] was 730 ± 680 µM; on His6-Te2FT [3] (setting [9]), 560 ± 210 µM. The kcat amounted to 0.438 ± 0.013 s⁻¹ on His6-Te2FT [2] and 0.005 ± 0.001 s⁻¹ on His6-Te2FT [3] (setting [9]). Further, the “kcat value for GDP-fucose, higher compared to GST-WbsJ” value at His6-Te2FT [2] (His6-Te2FT versus GST-WbsJ, acceptor Galβ1-3GlcNAcβ2AA) came to 201 fold. Also, the “kcat value for GDP-fucose, higher compared to His6Prop-WgbL” value on His6-Te2FT [2] (His6-Te2FT versus His6Prop-WgbL, acceptor Galβ1-3GlcNAcβ2AA) is 6.7 fold. On His6-Te2FT [2] (His6-Te2FT versus Hp2FT, acceptor Galβ1-3GlcNAcβ2AA), the “kcat value for GDP-fucose, higher compared to Hp2FT” value is listed as 14.6 fold. In addition, the “kcat/KM value for GDP-Fuc, higher than WbgL” value on His6-Te2FT [2] (His6-Te2FT versus WbgL) is on record as 2.5 fold. The “kcat/KM value for GDP-Fuc, higher than WbsJ” value at His6-Te2FT [2] (His6-Te2FT versus WbsJ) came out at 29.2 fold. Moreover, on His6-Te2FT [3] (His6-Te2FT, ratio of kcat/KM), the “GDP-fucose (donor) hydrolysis activity weaker than α1-2-fucosyltransferase activity” value was found to be 47 fold.

Turning to `[Cl-].[Cl-].[Mg+2]` [Mg^2+, MgCl2], the “enhancement of α1-2-fucosyltransferase activity” value on His6-Te2FT [1] is “about two-fold”.

Consider `[Cl][Mn][Cl]` [Mn^2+, MnCl2], for which the “enhancement of α1-2-fucosyltransferase activity” value at His6-Te2FT [1] is “about two-fold”.

Take Gal1-3GlcNAcαOR: the “suitability as acceptor substrate for adding α1-2-linked fucose” value (from here on “suitability as acceptor substrate”) on His6-Te2FT [4] is “worked well”.

Take Gal β1-3GlcNAcβ1-3Galβ1-4Glc [LNT]: the “suitability as acceptor substrate” value at His6-Te2FT [4] is “excellent acceptor”.

For Galβ1-3GalNAcαOR, the “suitability as acceptor substrate” value at His6-Te2FT [4] is “worked well”.

For the molecule Galβ1-3GalNAcβOR, the “suitability as acceptor substrate” value on His6-Te2FT [4] is “worked well”.

In the case of Galβ1-3GlcNAcβ2AA, at His6-Te2FT [2], the Km was 790 ± 110 µM and the kcat was 0.333 ± 0.012 s⁻¹. Further, at His6-Te2FT [2] (His6-Te2FT versus other 2FTs), the “affinity for the acceptor compared to GST-WbsJ, His6Prop-WgbL and Hp2FT” value was “higher affinity”.

For Galβ1-3GlcNAcβOR, the “suitability as acceptor substrate” value at His6-Te2FT [4] is recorded as “worked well”.

With Galβ1-4GlcNAcβOR, the “suitability as acceptor substrate” value on His6-Te2FT [4] is recorded as “not good acceptors”.

As for Galβ1-4GlcβOR, the “suitability as acceptor substrate” value at His6-Te2FT [4] was “not good acceptors”.

B1: His6-Te2FT: N-His6-tagged recombinant α1-2-fucosyltransferase from Thermosynechococcus elongatus BP-1 (SEQ ID NO:1) (protein, listed as Thermosynechococcus elongatus)
chain: MIIVHLCGGLGNQMFQYAAGLAAAHRIGSEVKFDTHWFDATCLHQGLELRRVFGLELPEPSSKDLRKVLGACVHPAVRRLLAGHFLHGLRPKSLVIQPHFHYWTGFEHLPDNVYLEGYWQSERYFSNIADIIRQQFRFVEPLDPHNAALMDEMQSGVSVSLHIRRGDYFNNPQMRRVHGVDLSEYYPAAVATMIEKTNAERFYVFSDDPQWVLEHLKLPVSYTVVDHNRGAASYRDMQLMSACRHHIIANSTFSWWGAWLNPRPDKVVIAPRHWFNVDVFDTRDLYCPGWIVL
modifications: N-terminal His6 tag
Take B1: the “stability to freeze-dry treatment” value in series [5] was “can survive a freeze-dry treatment”. The “requirement of a divalent metal ion for α1-2-fucosyltransferase activity” value in the series with His6-Te2FT [1] is recorded as “not required”. In addition, the “activity at low temperature” value in series [6] (15° C. and 20° C.) is “Low activity”. The “activity at high temperature” value in series [6] (65° C. or 70° C.) was “minimal activity”. Besides, in series [6] (pH 6.0, 10 minutes), the “temperature range in which active” value was 25-60 °C and the “temperature range of optimal activities” value was 30-45 °C. Besides, the “optimal pH for the GDP-fucose hydrolysis activity” value in series [7] (37° C., 30 minutes) was found to be 9.5. The donor hydrolysis activity entry in series [7] (pH range 5.0-8.0, 15-fold more enzyme and 3-fold longer reaction time) is “at a minimum”. Also, in series [8] (setting [10]), the “pH of optimal activities” value was 4.5-6.0 and the “pH range in which active” value is listed as 4.0-10.0. In addition, the “activity as % of the optimal activity” value in series [8] (pH 6.5) is on record as “About 85%”.
